Test results published in ChEMBL document CHEMBL5335870, “Discovery of Hepatitis B Virus Surface Antigen Suppressor GS-8873” (ACS Med Chem Lett, 2024).
One block for each molecule: values may come before it. Active and inactive are the calls of the source. The rule behind the calls is not given here.

Legend:
Hepatitis B virus = experiment: Antiviral activity against genotype D HBV infected in sodium taurocholate co-transporting polypeptide receptor-expressing stable HepG2 cell line assessed as suppression of HBsAg level incubated for 5 days by multiplex chemiluminescent MSD assay; format: functional, organism-based; details: HepG2, 120 h
[1] = Clearance in Sprague-Dawley rat at […], iv measured after 24 hrs by LC/MS/MS method; format: ADME, organism-based; details: in vivo
[2] = Oral bioavailability in Sprague-Dawley rat after 24 hrs by LC/MS/MS method; format: ADME, organism-based; details: in vivo
[3] = Lipophilicity, logD of the compound; format: physicochemical; details: octanol/water
[4] = In vivo clearance in rat; format: ADME, organism-based
[5] = In vivo clearance in dog; format: ADME, organism-based, Canis lupus familiaris
[6] = In vivo clearance in cynomolgus monkey; format: ADME, organism-based, Macaca fascicularis
[7] = Hepatic extraction in rat; format: ADME; details: read-out: ERH
[8] = Hepatic extraction in dog; format: ADME, Canis lupus familiaris; details: read-out: ERH
[9] = Hepatic extraction in cynomolgus monkey; format: ADME, Macaca fascicularis; details: read-out: ERH
[10] = Oral bioavailability in rat at 5 mg/kg; format: ADME, organism-based; details: in vivo
[11] = Oral bioavailability in dog at 5 mg/kg; format: ADME, organism-based, Canis lupus familiaris; details: in vivo
[12] = Oral bioavailability in cynomolgus monkey at 5 mg/kg; format: ADME, organism-based, Macaca fascicularis; details: in vivo
Primary hepatocyte [13] = experiment: Effect on cccDNA level in HBV infected primary human hepatocyte at 0.25 uM media replaced for every 2 to 3 days incubated for 12 days by Southern blot analysis; format: functional, cell-based; details: Hepatitis B virus, time 12.0 day
Primary hepatocyte [14] = experiment: Effect on cccDNA level in HBV infected primary human hepatocyte at 0.5 uM media replaced for every 2 to 3 days incubated for 12 days by Southern blot analysis; format: functional, cell-based; details: Hepatitis B virus, time 12.0 day

Structure (SMILES): COCCCOc1cc2c(cc1Cl)-c1cc(=O)c(C(=O)O)cn1N1CCC(C)(C)[C@H]21
EC50 (Hepatitis B virus): 12 nM

Structure (SMILES): COCCCOc1cc2c(cc1Cl)-c1cc(=O)c(C(=O)O)cn1N1[C@@H]2COCC1(C)C
EC50 (Hepatitis B virus): 2.9 nM

Structure (SMILES): COCCCOc1cc2c(cc1Cl)-c1cc(=O)c(C(=O)O)cn1N1[C@@H]2CCC12CC2
EC50 (Hepatitis B virus): 1 nM

Structure (SMILES): CC(C)(C)N1Cc2cc(-c3ccccn3)c(Cl)cc2-c2cc(=O)c(C(=O)O)cn21
EC50 (Hepatitis B virus): 47 nM

Structure (SMILES): COCCCOc1cc2c(cc1Cl)-c1cc(=O)c(C(=O)O)cn1N1CCC[C@H]21
EC50 (Hepatitis B virus): 55 nM

Structure (SMILES): COCCCOc1cc2c(cc1Cl)-c1cc(=O)c(C(=O)O)cn1N1[C@@H]2CCC1(C)C
EC50 (Hepatitis B virus): 1.7 nM
clearance [1]: 4.5 mL/min/kg
bioavailability [2]: 66%

Structure (SMILES): CC(C)(C)N1Cc2cc(N3CCCC3)c(Cl)cc2-c2cc(=O)c(C(=O)O)cn21
EC50 (Hepatitis B virus): 1 nM

Structure (SMILES): COCCCOc1cc2c(cc1OC)-c1cc(=O)c(C(=O)O)cn1[C@H](C(C)C)C2
EC50 (Hepatitis B virus): 15 nM
logD [3]: 2.1
clearance [4]: 18.3 mL/min/kg
clearance [5]: 11.2 mL/min/kg
clearance [6]: 11.3 mL/min/kg
hepatic extraction ratio [7]: 0.26
hepatic extraction ratio [8]: 0.37
hepatic extraction ratio [9]: 0.43
bioavailability [10]: 56%
bioavailability [11]: 90%
bioavailability [12]: 84%

Structure (SMILES): CC(C)(C)N1Cc2cc(OCC3CC(F)(F)C3)c(Cl)cc2-c2cc(=O)c(C(=O)O)cn21
EC50 (Hepatitis B virus): 12 nM
clearance [1]: 4.17 mL/min/kg
bioavailability [2]: 56%

Structure (SMILES): COCCCOc1cc2c(cc1OCCCOC)[C@H]1CCC(C)(C)N1n1cc(C(=O)O)c(=O)cc1-2
EC50 (Hepatitis B virus): 11 nM

Structure (SMILES): COCCCOc1cc2c(cc1Cl)-c1cc(=O)c(C(=O)O)cn1[C@H](C1(C)CC1)C2
EC50 (Hepatitis B virus): 3.8 nM
logD [3]: 2.4
Activity (Primary hepatocyte [13]): inactive

Structure (SMILES): COCCCOc1cc2c(cc1Cl)-c1cc(=O)c(C(=O)O)cn1N1[C@@H]2CC[C@@H]1C
EC50 (Hepatitis B virus): 5.4 nM

Structure (SMILES): CC(C)(C)N1Cc2cc(C#Cc3ccc(N4CC5CCC(C4)O5)nc3)c(Cl)cc2-c2cc(=O)c(C(=O)O)cn21
EC50 (Hepatitis B virus): 1.5 nM

Structure (SMILES): COCCCOc1cc2c(cc1Cl)-c1cc(=O)c(C(=O)O)cn1N(C(C)(C)C)[C@@H]2C
EC50 (Hepatitis B virus): 390 nM

Structure (SMILES): CC(C)(C)N1Cc2cc(OCC3COC3)c(Cl)cc2-c2cc(=O)c(C(=O)O)cn21
EC50 (Hepatitis B virus): 7.6 nM
clearance [1]: 20 mL/min/kg
bioavailability [2]: 91%

Structure (SMILES): COCCOCc1cc2c(cc1Cl)-c1cc(=O)c(C(=O)O)cn1N(C(C)(C)C)C2
EC50 (Hepatitis B virus): 210 nM

Structure (SMILES): CC(C)(C)N1Cc2cc(OCCCOc3cnn(C(F)F)c3)c(Cl)cc2-c2cc(=O)c(C(=O)O)cn21
EC50 (Hepatitis B virus): 3.9 nM
clearance [1]: 25 mL/min/kg

Structure (SMILES): COCCCOc1cc2c(cc1Cl)-c1cc(=O)c(C(=O)O)cn1N1[C@@H]2CCC12COC2
EC50 (Hepatitis B virus): 72 nM

Structure (SMILES): C[C@H](Cn1cnc2c(N)ncnc21)OCP(=O)(O)O
Activity (Primary hepatocyte [14]): inactive

Structure (SMILES): COCCCNc1cc2c(cc1Cl)-c1cc(=O)c(C(=O)O)cn1N(C(C)(C)C)C2
EC50 (Hepatitis B virus): 18 nM

Structure (SMILES): COCCCOc1cc2c(cc1Cl)-c1cc(=O)c(C(=O)O)cn1N1[C@@H]2CC1(C)C
EC50 (Hepatitis B virus): 4 nM

The next lines start with the values.

EC50 (Hepatitis B virus): 13 nM
Structure (SMILES): COCCCOc1cc2c(cc1C1COC1)-c1cc(=O)c(C(=O)O)cn1N1[C@@H]2CCC1(C)C

EC50 (Hepatitis B virus): 620 nM
Structure (SMILES): CN(C)CCCOc1cc2c(cc1Cl)-c1cc(=O)c(C(=O)O)cn1N(C(C)(C)C)C2

EC50 (Hepatitis B virus): 52 nM
Structure (SMILES): COCCCOc1cc2c(cc1S(C)(=O)=O)-c1cc(=O)c(C(=O)O)cn1N1[C@@H]2CCC1(C)C

EC50 (Hepatitis B virus): 41 nM
Structure (SMILES): COCCCOc1cc2c(cc1Cl)-c1cc(=O)c(C(=O)O)cn1N1CC(C)(C)C[C@H]21

EC50 (Hepatitis B virus): 6.4 nM
clearance [1]: 16.2 mL/min/kg
bioavailability [2]: 95%
Structure (SMILES): COCCCOc1cc2c(cc1OC(C)C)-c1cc(=O)c(C(=O)O)cn1N1[C@@H]2CCC1(C)C

EC50 (Hepatitis B virus): 16 nM
Structure (SMILES): CC(C)(C)N1Cc2cc(C#CC3CC3)c(Cl)cc2-c2cc(=O)c(C(=O)O)cn21

EC50 (Hepatitis B virus): 7.5 nM
clearance [1]: 20 mL/min/kg
bioavailability [2]: > 100%
Structure (SMILES): CCOc1cc2c(cc1OCCCOC)[C@H]1CCC(C)(C)N1n1cc(C(=O)O)c(=O)cc1-2

EC50 (Hepatitis B virus): 78 nM
Structure (SMILES): COCCCOc1cc2c(cc1OC(C)(C)C)-c1cc(=O)c(C(=O)O)cn1N1[C@@H]2CCC1(C)C

EC50 (Hepatitis B virus): 0.78 nM
clearance [1]: 16.7 mL/min/kg
Structure (SMILES): COCCCOc1cc2c(cc1C1CC1)-c1cc(=O)c(C(=O)O)cn1N1[C@@H]2CCC1(C)C

EC50 (Hepatitis B virus): 150 nM
logD [3]: 2.5
clearance [4]: 5 mL/min/kg
clearance [5]: 6 mL/min/kg
clearance [6]: 2.83 mL/min/kg
hepatic extraction ratio [7]: 0.071
hepatic extraction ratio [8]: 0.2
hepatic extraction ratio [9]: 0.11
bioavailability [10]: 41%
bioavailability [12]: 120%
Structure (SMILES): COCCCOc1cc2c(cc1Cl)-c1cc(=O)c(C(=O)O)cn1[C@H](C(C)(C)C)C2

EC50 (Hepatitis B virus): 97 nM
Structure (SMILES): COCCCOc1cc2c(cc1Cl)-c1cc(=O)c(C(=O)O)cn1N(C(C)(C)C)[C@H]2C

EC50 (Hepatitis B virus): 0.45 nM
Structure (SMILES): CCc1cc2c(cc1OCCCOC)[C@H]1CCC(C)(C)N1n1cc(C(=O)O)c(=O)cc1-2

EC50 (Hepatitis B virus): 2 nM
Structure (SMILES): COCCCOc1cc2c(cc1Cl)-c1cc(=O)c(C(=O)O)cn1N1[C@@H]2CCCC1(C)C

EC50 (Hepatitis B virus): 1.1 nM
clearance [1]: 8 mL/min/kg
bioavailability [2]: 47%
Structure (SMILES): COCCCOc1cc2c(cc1OC(F)(F)F)-c1cc(=O)c(C(=O)O)cn1N1[C@@H]2CCC1(C)C

EC50 (Hepatitis B virus): 2.1 nM
clearance [1]: 16.7 mL/min/kg
bioavailability [2]: 84%
Structure (SMILES): COCCCOc1cc2c(cc1OC)-c1cc(=O)c(C(=O)O)cn1N1[C@@H]2CCC1(C)C

EC50 (Hepatitis B virus): 420 nM
Structure (SMILES): COCCCOc1cc2c(cc1Cl)-c1cc(=O)c(C(=O)O)cn1N1[C@H]2CCC1(C)C

EC50 (Hepatitis B virus): 0.97 nM
clearance [1]: 9 mL/min/kg
bioavailability [2]: 60%
Structure (SMILES): COCCCOc1cc2c(cc1OC(F)F)-c1cc(=O)c(C(=O)O)cn1N1[C@@H]2CCC1(C)C

EC50 (Hepatitis B virus): 11 nM
Structure (SMILES): COCCCOc1cc2c(cc1Cl)-c1cc(=O)c(C(=O)O)cn1N1[C@H](C)CC[C@H]21

EC50 (Hepatitis B virus): 2.1 nM
clearance [1]: 15 mL/min/kg
bioavailability [2]: 30%
Structure (SMILES): CC(C)(C)N1Cc2cc(C#Cc3cnc(N4CC5CCC(C4)N5C4COC4)nc3)c(Cl)cc2-c2cc(=O)c(C(=O)O)cn21

EC50 (Hepatitis B virus): 5.8 nM
clearance [1]: 13.8 mL/min/kg
bioavailability [2]: 58%
Structure (SMILES): COCCCOc1cc2c(cc1OCC(F)F)-c1cc(=O)c(C(=O)O)cn1N1[C@@H]2CCC1(C)C

logD [3]: 2.2
Structure (SMILES): COCCCOc1cc2c(cc1OC)-c1cc(=O)c(C(=O)O)cn1C(C1(C)CC1)C2 (stereo not given)
